The results in this text go back to US20110015226A1, “Treatment of Energy Utilization Disease” (SUMMIT CORPORATION PLC, priority 2008, published 2011).

Read-outs that look alike come from different tables or passages of the source. Some results are limits rather than exact numbers.

Assay type in all cases: biochemical
One experiment addresses T1, α-D-glucosidase (Yeast) (Saccharomyces cerevisiae, UniProt P53341).
T1 construct: purchased Sigma
In words: Glycosidase inhibition: α-D-glucosidase (Yeast). To be noted: compounds tested at 0.8 mM. From the text: (§1) The results tabulated below were obtained using commercially available glycosidases and p-nitrophenyl-substrates using standard methods described for example by Watson et al (1997) Phytochemistry 46 255-259. All enzymes and substrates were bought from Sigma. Enzyme and substrate solutions were made using sodium phosphate buffers at the pH optima values. The enzymes used were α-D-glucosidase Saccharomyces cerevisiae, Bacillus stearothermophilus, Oryzae sativa), β-D-glucosidase (Almond), α-D-mannosidase (Jack bean), α-D-galactosidase (Green coffee beans), β-D-galactosidase (Bovine liver), α-L-fucosidase (Bovine kidney), N-acetyl-β-D-glucosaminidase (Bovine kidney, Jack bean, Aspergillus oryzae), Naringinase (Penicillium decumbens) and amyloglucosidase (Aspergillus niger). All enzymes were used with the appropriate p-nitrophenyl substrates (5 mM). Amyloglucosidase activity was measured using amylopectin (0.1%) (Merck) mixed with sodium phosphate buffer, pH 4.5 in a glass bottle, and healed in a boiling water bath for 20 minutes to dissolve with released glucose measured using ‘Trinder’ glucose detection solution (Sigma).
(§2) All enzymes and para-nitrophenyl substrates were purchased from Sigma, with the exception of beta-mannosidase which came from Megazyme. Enzymes were assayed at 27° C. in 0.1M citric acid/0.2M disodium hydrogen phosphate buffers at the optimum pH for the enzyme. The incubation mixture consisted of 10 μl enzyme solution, 10 μl of 1 mg/ml aqueous solution of extract and 50 μl of the appropriate 5 mM para-nitrophenyl substrate made up in buffer at the optimum pH for the enzyme. The reactions were stopped by addition of 70 μl 0.4M glycine (pH 10.4) during the exponential phase of the reaction, which had been determined at the beginning using uninhibited assays in which water replaced inhibitor. Final absorbances were read at 405 nm using a Versamax microplate reader (Molecular Devices). Assays were carried out in triplicate, and the values given are means of the three replicates per assay. (See Watson, A. A., Nash, R. J., Wormald, M. R., Harvey, D. J., Dealler, S., Lees, E., Asano, N., Kizu, H., Kato, A., Griffiths, R. C., Cairns, A. J. and Fleet, G. W. J. (1997). Glycosidase-inhibiting pyrrolidine alkaloids from Hyacinthoides non-scripta. Phytochemistry 46 (2): 255-259.)

Experiment [1] has as its target α-D-glucosidase (Bacillus) (Geobacillus stearothermophilus, UniProt A0ACH1E9U3). Briefly: Glycosidase inhibition: α-D-glucosidase (Bacillus). To be noted: compounds tested at 0.8 mM.
Description: as §1, §2

The target in a further experiment is T2, α-D-glucosidase (Rice) (Oryza sativa subsp. japonica, UniProt Q653V7).
T2 construct: purchased Sigma
Briefly: Glycosidase inhibition: α-D-glucosidase (Rice). To be noted: for inhibition at 800 µM: compounds tested at 0.8 mM; for IC50: read-out: IC50, α-D-glucosidase (Rice).

Experiment [2] deals with T3, α-D-galactosidase Green coffee bean (Coffea arabica, UniProt Q42656).
T3 construct: α-D-galactosidase (Green coffee beans); purchased Sigma; host or cells: green coffee beans
In words: Glycosidase inhibition: α-D-galactosidase Green coffee bean. To be noted: compounds tested at 0.8 mM.
Description: as §1, §2

Experiment [3] addresses T4, α-L-fucosidase Bovine kidney (Bos taurus, UniProt Q2KIM0).
T4 construct: α-L-fucosidase (Bovine kidney); purchased Sigma; host or cells: bovine kidney
T4 sequence (Q2KIM0 23-468): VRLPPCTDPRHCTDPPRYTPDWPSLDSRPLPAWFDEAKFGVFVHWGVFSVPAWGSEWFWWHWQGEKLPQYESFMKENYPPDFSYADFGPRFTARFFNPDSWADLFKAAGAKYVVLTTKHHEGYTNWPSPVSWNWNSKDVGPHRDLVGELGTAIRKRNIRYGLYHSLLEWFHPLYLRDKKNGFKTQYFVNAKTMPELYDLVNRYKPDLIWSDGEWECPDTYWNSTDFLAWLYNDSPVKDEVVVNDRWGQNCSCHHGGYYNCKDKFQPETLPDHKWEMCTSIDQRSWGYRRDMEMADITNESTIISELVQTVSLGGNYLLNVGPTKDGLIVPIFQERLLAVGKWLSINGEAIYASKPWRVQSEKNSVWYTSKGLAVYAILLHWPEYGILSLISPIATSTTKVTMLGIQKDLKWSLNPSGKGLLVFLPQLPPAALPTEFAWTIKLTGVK
In words: Glycosidase inhibition: α-L-fucosidase Bovine kidney. To be noted: compounds tested at 0.8 mM.

For experiment [4], the target named is T5, α-D-mannosidase Jack bean (Canavalia ensiformis, UniProt C0HJB3).
T5 construct: α-D-mannosidase (Jack bean); purchased Sigma
T5 sequence (C0HJB3 1-981): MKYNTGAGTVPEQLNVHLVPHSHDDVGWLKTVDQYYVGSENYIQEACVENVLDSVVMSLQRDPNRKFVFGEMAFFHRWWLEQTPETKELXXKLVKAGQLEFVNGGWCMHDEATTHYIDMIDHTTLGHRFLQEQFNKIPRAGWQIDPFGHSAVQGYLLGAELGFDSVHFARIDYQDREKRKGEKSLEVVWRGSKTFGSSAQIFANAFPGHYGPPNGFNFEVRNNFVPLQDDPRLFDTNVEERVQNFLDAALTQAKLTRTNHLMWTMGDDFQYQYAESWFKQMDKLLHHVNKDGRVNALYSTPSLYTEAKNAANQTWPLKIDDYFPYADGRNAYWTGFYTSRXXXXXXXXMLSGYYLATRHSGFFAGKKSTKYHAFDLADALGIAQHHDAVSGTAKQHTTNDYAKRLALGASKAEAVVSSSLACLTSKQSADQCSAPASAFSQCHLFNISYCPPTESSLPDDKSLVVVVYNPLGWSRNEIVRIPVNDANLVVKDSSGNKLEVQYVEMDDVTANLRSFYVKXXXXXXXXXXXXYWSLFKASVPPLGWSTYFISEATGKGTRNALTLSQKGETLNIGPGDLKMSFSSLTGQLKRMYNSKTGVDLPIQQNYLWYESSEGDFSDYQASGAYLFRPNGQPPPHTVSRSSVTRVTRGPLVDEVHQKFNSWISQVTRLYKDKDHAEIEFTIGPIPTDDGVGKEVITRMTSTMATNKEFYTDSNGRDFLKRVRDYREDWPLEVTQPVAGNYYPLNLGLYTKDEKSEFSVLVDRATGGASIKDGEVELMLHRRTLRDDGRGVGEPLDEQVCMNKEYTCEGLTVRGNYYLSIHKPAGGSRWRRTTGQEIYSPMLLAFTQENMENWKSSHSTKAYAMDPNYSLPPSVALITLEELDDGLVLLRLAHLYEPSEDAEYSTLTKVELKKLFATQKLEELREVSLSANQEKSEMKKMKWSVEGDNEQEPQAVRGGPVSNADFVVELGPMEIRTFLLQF
Briefly: Glycosidase inhibition: α-D-mannosidase Jack bean. To be noted: compounds tested at 0.8 mM.

Experiment [5] relates to N-acetyl-β-D-glucosaminidase (Bovine kidney). In words: Glycosidase inhibition: N-acetyl-β-D-glucosaminidase (Bovine kidney).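 As to all read-outs here: enzyme activity followed by cleavage of the matching p-nitrophenyl glycoside (5 mM) in phosphate buffer set to the enzyme's optimal pH.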 To be noted: for % inhibition, N-acetyl-β-D-glucosaminidase (Bovine kidney): compounds tested at 0.8 mM.
Experiment [6] has as its target T6, N-acetyl-β-D-glucosaminidase (A. oryzae) (Aspergillus oryzae, UniProt Q8J2T0).
T6 construct: purchased Sigma
Briefly: Glycosidase inhibition: N-acetyl-β-D-glucosaminidase (A. oryzae). To be noted: compounds tested at 0.8 mM.
Description: as §1, §2

Experiment [7] has as its target T7, Amyloglucosidase Aspergillus niger (Aspergillus niger, UniProt P69328).
T7 construct: purchased Sigma
In words: Glycosidase inhibition: Amyloglucosidase Aspergillus niger. To be noted: compounds tested at 0.8 mM.
Description: as §1, §2

Experiment [8] has as its target T8, β-Glucuronidase Bovine liver (Bos taurus, UniProt A3KMY8).
T8 construct: The assay involved the use of Bovine liver β-glucuronidase; purchased Sigma; host or cells: bovine liver
T8 sequence (A3KMY8 1-652): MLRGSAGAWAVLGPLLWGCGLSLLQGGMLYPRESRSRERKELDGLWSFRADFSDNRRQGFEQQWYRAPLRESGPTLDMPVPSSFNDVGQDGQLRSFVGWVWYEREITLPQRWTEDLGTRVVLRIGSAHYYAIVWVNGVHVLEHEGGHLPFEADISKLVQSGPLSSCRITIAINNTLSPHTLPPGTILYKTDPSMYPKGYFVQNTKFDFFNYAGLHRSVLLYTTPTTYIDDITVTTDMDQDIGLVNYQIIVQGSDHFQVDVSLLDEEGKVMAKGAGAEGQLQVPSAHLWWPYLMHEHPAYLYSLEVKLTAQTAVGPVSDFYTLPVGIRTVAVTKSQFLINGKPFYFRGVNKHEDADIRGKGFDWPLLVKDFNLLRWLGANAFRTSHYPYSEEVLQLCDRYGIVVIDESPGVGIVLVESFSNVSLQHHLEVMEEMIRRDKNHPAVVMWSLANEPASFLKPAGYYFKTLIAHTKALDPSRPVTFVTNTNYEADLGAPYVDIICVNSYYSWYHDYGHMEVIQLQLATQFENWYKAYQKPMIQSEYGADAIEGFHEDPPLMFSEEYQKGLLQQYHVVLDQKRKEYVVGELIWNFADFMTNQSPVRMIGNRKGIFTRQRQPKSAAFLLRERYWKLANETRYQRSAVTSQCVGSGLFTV
In words: Glycosidase inhibition: β-Glucuronidase Bovine liver.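 Also: bovine liver β-glucuronidase acting on p-nitrophenyl β-D-glucuronide substrate in citric acid/disodium hydrogen phosphate buffer, pH 5.0, 27 °C, mean of triplicate runs.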

Experiment [9] addresses T9, rabbit intestinal sucrase (Oryctolagus cuniculus, UniProt P07768).
T9 construct: The small intestine was dissected out of a female wild rabbit; from tissue; host or cells: small-intestinal mucosa of a female wild rabbit
In words: Rabbit disaccharidase inhibition assay: sucrase. To be noted: NI: no inhibition at 0.8 mM. As for the experimental part:
(§3) Sucrose (8.3 mM), maltose (5 mM) and isomaltose (6.3 mM) substrates were made using 0.2 M Macllvaine (citrate-phosphate) buffer, pH 6.0. The glucose detection reagent was prepared according to the supplier's instructions (Megazyme Ltd). Linearity of the timecourse of the reaction between the glucose detection reagent and glucose was tested using a series of glucose dilutions.
(§4) The method for preparation of mammalian small intestine mucosal disaccharidases was based on Griffiths (1998), omitting ammonium sulphate fractionation steps. The small intestine was dissected out of a female wild rabbit, and opened longitudinally using a scalpel. The mucosal layer was scraped off using the edge of a clean microscope slide, and placed into 3 ml of dH2O. The mucosal layer suspension was centrifuged at around 1000 rpm for 30 seconds to sediment tissue debris. The supernatant ([…]) was removed, and centrifuged again at 3500 rcf for 1 minute to remove fine particulates from suspension. The supernatant was diluted to give 0.2-0.25 mg/ml protein and stored at −30° C.
(§5) Enzyme assays were carried out using 5-15 μl of enzyme preparation, 5 μl of test compound (or dH2O for controls) and 15-25 μl of substrate solution. Reactions were covered using a sheet of plate sealing film, and incubated at 37° C. for 60 minutes. Glucose (from disaccharide hydrolysis) was quantified by adding 200 μl of glucose detection reagent and incubating the reactions for a further twenty-five minutes. Absorbance was measured at 510 nm against control blanks.

In experiment [10] the target is rabbit intestinal maltase. Briefly: Rabbit disaccharidase inhibition assay: maltase. To be noted: NI: no inhibition at 0.8 mM. As for the experimental part:
as §3, §4, §5

Experiment [11] deals with T10, rabbit intestinal isomaltase (Oryctolagus cuniculus, UniProt P07768).
T10 construct: The small intestine was dissected out of a female wild rabbit; from tissue; host or cells: small-intestinal mucosa of a female wild rabbit
Briefly: Rabbit disaccharidase inhibition assay: isomaltase. To be noted: NI: no inhibition at 0.8 mM. As for the experimental part:
as §3, §4, §5

[12] abbreviates: read-out: IC50, N-acetyl-β-D-glucosaminidase (Bovine kidney).
Where [13] appears, read: pH 5.0, 27° C., p-nitrophenyl β-D-glucuronide, read-out: IC50, β-Glucuronidase Bovine liver.

α-D-glucosidase (Bacillus), sequence (A0ACH1E9U3 entry or part of it): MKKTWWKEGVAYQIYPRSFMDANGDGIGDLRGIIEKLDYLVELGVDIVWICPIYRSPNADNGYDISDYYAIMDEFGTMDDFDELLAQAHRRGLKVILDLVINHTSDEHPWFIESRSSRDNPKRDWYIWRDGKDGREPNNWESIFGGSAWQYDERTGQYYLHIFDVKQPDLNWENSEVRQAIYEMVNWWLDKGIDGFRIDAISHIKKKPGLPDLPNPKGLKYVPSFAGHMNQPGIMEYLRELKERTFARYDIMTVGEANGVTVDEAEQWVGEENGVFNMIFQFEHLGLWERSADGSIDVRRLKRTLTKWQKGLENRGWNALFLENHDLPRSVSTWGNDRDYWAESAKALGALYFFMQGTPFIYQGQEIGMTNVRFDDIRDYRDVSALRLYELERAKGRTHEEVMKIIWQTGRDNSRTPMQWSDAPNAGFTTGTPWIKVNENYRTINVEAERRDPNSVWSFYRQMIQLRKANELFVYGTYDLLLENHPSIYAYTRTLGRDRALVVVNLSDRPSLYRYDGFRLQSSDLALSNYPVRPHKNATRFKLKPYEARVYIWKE
T6 sequence (Q8J2T0 97-600): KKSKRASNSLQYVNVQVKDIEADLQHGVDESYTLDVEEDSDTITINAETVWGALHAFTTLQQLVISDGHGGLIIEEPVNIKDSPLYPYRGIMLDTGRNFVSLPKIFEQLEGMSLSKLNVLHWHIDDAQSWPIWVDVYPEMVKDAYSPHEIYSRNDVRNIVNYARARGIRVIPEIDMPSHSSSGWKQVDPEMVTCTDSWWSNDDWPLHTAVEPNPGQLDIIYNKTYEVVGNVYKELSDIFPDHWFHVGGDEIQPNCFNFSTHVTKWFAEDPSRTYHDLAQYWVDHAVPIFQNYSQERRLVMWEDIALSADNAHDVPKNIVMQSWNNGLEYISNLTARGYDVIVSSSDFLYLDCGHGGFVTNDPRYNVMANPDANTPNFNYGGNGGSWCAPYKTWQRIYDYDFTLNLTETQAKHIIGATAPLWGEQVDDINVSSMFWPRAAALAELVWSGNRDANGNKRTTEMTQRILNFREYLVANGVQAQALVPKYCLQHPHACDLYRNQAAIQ
T2 sequence (Q653V7 34-885): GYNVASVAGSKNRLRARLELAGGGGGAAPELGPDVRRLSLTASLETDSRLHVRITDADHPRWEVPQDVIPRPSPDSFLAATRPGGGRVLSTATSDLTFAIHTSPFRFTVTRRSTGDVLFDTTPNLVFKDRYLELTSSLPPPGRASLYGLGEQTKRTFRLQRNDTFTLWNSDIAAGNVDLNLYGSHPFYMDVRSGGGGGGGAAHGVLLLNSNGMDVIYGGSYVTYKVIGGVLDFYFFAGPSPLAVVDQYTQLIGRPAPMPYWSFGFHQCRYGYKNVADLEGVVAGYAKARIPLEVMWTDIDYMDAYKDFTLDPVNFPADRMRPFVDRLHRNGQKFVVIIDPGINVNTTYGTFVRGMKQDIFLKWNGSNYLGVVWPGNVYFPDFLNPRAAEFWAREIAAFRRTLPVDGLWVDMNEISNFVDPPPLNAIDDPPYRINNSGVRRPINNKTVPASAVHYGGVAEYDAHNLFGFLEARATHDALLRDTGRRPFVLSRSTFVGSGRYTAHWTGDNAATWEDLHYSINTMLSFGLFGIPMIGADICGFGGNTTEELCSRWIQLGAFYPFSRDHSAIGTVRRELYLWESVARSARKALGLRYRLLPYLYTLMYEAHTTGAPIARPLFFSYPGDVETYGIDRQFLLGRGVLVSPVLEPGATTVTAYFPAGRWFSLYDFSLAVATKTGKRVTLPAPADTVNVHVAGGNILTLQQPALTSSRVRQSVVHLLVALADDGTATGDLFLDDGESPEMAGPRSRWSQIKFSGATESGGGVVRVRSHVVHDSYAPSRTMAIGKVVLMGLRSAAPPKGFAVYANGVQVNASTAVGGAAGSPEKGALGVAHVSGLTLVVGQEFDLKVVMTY
T3 sequence (Q42656 16-378): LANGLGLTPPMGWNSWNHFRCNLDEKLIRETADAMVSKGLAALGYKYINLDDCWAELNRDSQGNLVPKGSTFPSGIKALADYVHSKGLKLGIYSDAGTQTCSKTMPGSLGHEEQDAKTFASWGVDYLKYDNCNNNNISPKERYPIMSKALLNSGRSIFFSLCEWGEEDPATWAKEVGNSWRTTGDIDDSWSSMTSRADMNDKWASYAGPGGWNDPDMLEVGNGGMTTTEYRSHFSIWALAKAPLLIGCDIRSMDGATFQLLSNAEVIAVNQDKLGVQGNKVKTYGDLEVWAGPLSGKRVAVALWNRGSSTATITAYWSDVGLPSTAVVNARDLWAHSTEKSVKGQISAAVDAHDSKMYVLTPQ
T7 sequence (P69328 25-640): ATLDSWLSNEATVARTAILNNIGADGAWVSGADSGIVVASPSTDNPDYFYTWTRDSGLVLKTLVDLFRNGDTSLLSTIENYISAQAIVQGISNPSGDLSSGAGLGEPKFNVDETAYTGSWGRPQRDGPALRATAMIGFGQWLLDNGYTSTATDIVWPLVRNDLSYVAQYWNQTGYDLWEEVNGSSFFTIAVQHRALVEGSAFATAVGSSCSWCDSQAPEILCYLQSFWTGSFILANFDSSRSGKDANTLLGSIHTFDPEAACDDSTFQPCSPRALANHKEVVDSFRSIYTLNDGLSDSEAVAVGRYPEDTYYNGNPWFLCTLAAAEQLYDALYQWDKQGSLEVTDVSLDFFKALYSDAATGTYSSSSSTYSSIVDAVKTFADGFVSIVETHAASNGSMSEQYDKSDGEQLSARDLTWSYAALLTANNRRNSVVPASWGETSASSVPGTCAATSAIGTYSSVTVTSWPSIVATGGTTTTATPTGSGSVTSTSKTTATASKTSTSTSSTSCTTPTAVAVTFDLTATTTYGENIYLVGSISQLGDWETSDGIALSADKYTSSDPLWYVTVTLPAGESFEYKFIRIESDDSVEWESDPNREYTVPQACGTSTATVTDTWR
T1 sequence (P53341 whole entry): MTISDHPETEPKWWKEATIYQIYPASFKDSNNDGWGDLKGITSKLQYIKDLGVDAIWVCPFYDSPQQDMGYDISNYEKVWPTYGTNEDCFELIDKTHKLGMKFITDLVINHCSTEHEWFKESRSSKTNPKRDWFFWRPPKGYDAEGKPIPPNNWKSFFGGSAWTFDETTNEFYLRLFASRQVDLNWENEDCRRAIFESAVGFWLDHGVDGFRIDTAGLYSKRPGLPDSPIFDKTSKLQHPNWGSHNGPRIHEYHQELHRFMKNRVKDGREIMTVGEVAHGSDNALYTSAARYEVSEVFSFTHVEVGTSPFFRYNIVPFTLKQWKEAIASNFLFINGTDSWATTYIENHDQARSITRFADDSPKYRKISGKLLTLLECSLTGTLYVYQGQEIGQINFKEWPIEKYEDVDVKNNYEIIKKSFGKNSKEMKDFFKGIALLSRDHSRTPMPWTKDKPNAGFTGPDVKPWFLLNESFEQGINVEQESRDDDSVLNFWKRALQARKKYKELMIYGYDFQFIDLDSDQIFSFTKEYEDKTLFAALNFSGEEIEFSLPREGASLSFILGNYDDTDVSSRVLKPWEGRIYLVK

For orientation: inhibition means the change of the read-out against control, counted positive when it falls. Low readings indicate little suppression, high ones strong suppression. For orientation: IC50 means the concentration that inhibits the measured activity by half. As for `O=C(O)CN1C[C@H](O)[C@@H](O)[C@H](O)[C@H]1CO` [Compound G6, 2-((2R,3R,4R,6S)-3,4,5-Trihydroxy-2-(hydroxymethyl)piperidin-1-yl)acetic acid], the inhibition at 800 µM at α-D-glucosidase (Yeast) was under 50%; in experiment [1] it was under 50%; at α-D-glucosidase (Rice), 99.7%; in [2] it was under 50%; in experiment [3] it was under 50%; in [4], under 50%. Moreover, the inhibition at 800 µM in experiment [6] and in [7] was under 50% in each case. Moreover, the IC50 on α-D-glucosidase (Rice) was determined as 1 µM; in [5] (setting [12]), 10.4 µM; in experiment [8] (setting [13]), 80 µM. In addition, the “% inhibition, N-acetyl-β-D-glucosaminidase (Bovine kidney)” value (“% inhibition” below) in experiment [5] is recorded as 83.6%.

In the case of `O=C(O)[C@@H]1[C@@H](O)[C@H](O)[C@@H](O)CN1CCO` [Compound T3, (2S,3R,4R,5S)-3,4,5-Trihydroxy-1-(2-hydroxyethyl)piperidine-2-carboxylic acid], the inhibition at 800 µM is under 50% on α-D-glucosidase (Yeast); under 50% in experiment [1]; 67.2% against α-D-glucosidase (Rice); under 50% in [2]; under 50% in [3]; under 50% in experiment [4]. Moreover, the inhibition at 800 µM in experiment [6] and in experiment [7] was under 50% throughout. For the same compound, the IC50 on α-D-glucosidase (Rice) stood at 259 µM; in experiment [5] (read-out: IC50 against mammalian 6-N-acetylglucosaminidase (hexosaminidase)), 12.2 µM; in [8] (read-out: IC50 against mammalian glucuronidase) it was 60 µM. In addition, the “% inhibition” value in experiment [5] turned out to be 82.0%.

`O=C(O)CN1C[C@@H](O)[C@H](O)[C@H]1CO` [Compound T4, 2-((2R,3R,4R)-3,4-Dihydroxy-2-(hydroxymethyl)pyrrolidin-1-yl)acetic acid]: the inhibition at 800 µM (against α-D-glucosidase (Yeast); in experiment [1]; on α-D-glucosidase (Rice); in experiment [2]; in experiment [3]; in [4]) was under 50% throughout. In addition, the inhibition at 800 µM in experiment [6] and in experiment [7] was under 50% throughout. In [5], the “% inhibition” value is 81.9%. Further, the 50% inhibitory concentration (IC50) in experiment [5] (setting [12]) was determined as 39.6 µM; in experiment [8] (setting [13]), 160 µM.

Turning to `CCCCN1C[C@H](O)[C@@H](O)[C@H](O)[C@H]1CO` [Zavesca, N-butyl-DNJ, reference compound], the IC50 in experiment [9] turned out to be 0.22 µM; in experiment [10], 0.97 µM; in [11], 0.19 µM.
